The record followed here is PubChem BioAssay (NCI).

Some test systems named below: NCI-H226 lung; LOX IMVI melanoma; OVCAR-8 ovarian; SK-OV-3 ovarian; SK-MEL-28 melanoma; PC-3 prostate; SNB-19 CNS; UO-31 renal; DU-145 prostate; RXF 393 renal; NCI-H23 lung; NCI-H460 lung; ACHN renal; MDA-MB-435; TK-10 renal.
Common to all, as to assay: NCI-60 cell line screen, 48 h

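Grown in 96-well plates, cells were treated for 48 hours with each compound at five concentrations. Insufficient inhibition: endpoint recorded as highest concentration tested. At the TGI there is no net growth.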

`O=C(CN1c2ccccc2Sc2ccccc21)n1cnc2ccccc21`: the TGI in the experiment with NCI-H226 lung, in the experiment with LOX IMVI melanoma, with OVCAR-8 ovarian, with SK-OV-3 ovarian, with SK-MEL-28 melanoma and with PC-3 prostate was > 100 µM in each case. The TGI in the experiment on SNB-19 CNS, in the experiment with UO-31 renal, with DU-145 prostate, with RXF 393 renal, in the experiment with NCI-H23 lung and in the experiment on NCI-H460 lung was > 100 µM each time. The TGI in the experiment with ACHN renal, with MDA-MB-435 and in the experiment with TK-10 renal was > 100 µM in each case.
On to `COc1ccc(-c2c(C(=O)Nc3ccccc3)c(-c3ccccc3)n(C3OC(CO)C(O)C(O)C3O)c(=S)c2C#N)cc1` (stereo unspecified), for which the TGI in the experiment on NCI-H226 lung, in the experiment with LOX IMVI melanoma, with OVCAR-8 ovarian, in the experiment on SK-MEL-28 melanoma, with PC-3 prostate and in the experiment on SNB-19 CNS was > 100 µM throughout. Further, the TGI in the experiment on UO-31 renal, in the experiment on DU-145 prostate, in the experiment on RXF 393 renal, with NCI-H23 lung, with NCI-H460 lung and in the experiment on ACHN renal was > 100 µM each time. In the experiment with MDA-MB-435, the TGI is > 100 µM.
As for `O=[N+]([O-])c1ccc2nc(/C=C(\O)c3ccccc3)c(/C=C(\O)c3ccc(Cl)cc3)nc2c1`, the TGI in the experiment with NCI-H226 lung, in the experiment on OVCAR-8 ovarian, in the experiment with SK-OV-3 ovarian, in the experiment with PC-3 prostate, with SNB-19 CNS and with UO-31 renal was > 100 µM each time. The TGI is > 100 µM in the experiment on DU-145 prostate; 83.9 µM in the experiment on RXF 393 renal; > 100 µM in the experiment on NCI-H23 lung; > 100 µM in the experiment on NCI-H460 lung; > 100 µM in the experiment with ACHN renal; > 100 µM in the experiment with MDA-MB-435. In the experiment on TK-10 renal, the TGI was > 100 µM.
For the molecule `CCC1c2[nH]c3ccccc3c2C[C@H]2C(=O)NC(Cc3ccccc3)C(=O)N12` (stereo partly specified), the TGI in the experiment on NCI-H226 lung is 74.9 µM; in the experiment on LOX IMVI melanoma, 45.8 µM; in the experiment on OVCAR-8 ovarian it was > 100 µM; with SK-OV-3 ovarian it was > 100 µM; in the experiment on SK-MEL-28 melanoma, > 100 µM; in the experiment with PC-3 prostate, 58.2 µM. Further, the TGI with SNB-19 CNS was > 100 µM; in the experiment on UO-31 renal it was > 100 µM; in the experiment on DU-145 prostate, > 100 µM; in the experiment with RXF 393 renal, 53.6 µM; in the experiment on NCI-H23 lung, > 100 µM; with ACHN renal it was > 100 µM. Besides, the figures for the TGI in the experiment on MDA-MB-435 and in the experiment with TK-10 renal were 43.8 µM and > 100 µM, respectively.
`Cc1ccc2c(c1)C(=O)c1ccc(C)nc1C2=O`: the TGI is > 100 µM with NCI-H226 lung; 75.6 µM with LOX IMVI melanoma; > 100 µM with OVCAR-8 ovarian; > 100 µM in the experiment with SK-OV-3 ovarian; > 100 µM with SK-MEL-28 melanoma; > 100 µM in the experiment with PC-3 prostate. Further, the TGI with SNB-19 CNS was 63.6 µM; in the experiment with UO-31 renal it was > 100 µM; in the experiment on DU-145 prostate, > 100 µM; in the experiment with RXF 393 renal, > 100 µM; in the experiment on NCI-H23 lung, 58.9 µM; in the experiment with ACHN renal it was > 100 µM. Moreover, the figures for the TGI in the experiment on MDA-MB-435 and in the experiment on TK-10 renal were 37.6 µM and > 100 µM, respectively.
Regarding `NC1=NC(=O)[C@H](CSCc2ccccc2)N1C(=O)OCc1ccccc1`, the TGI in the experiment with NCI-H226 lung, in the experiment on LOX IMVI melanoma, with OVCAR-8 ovarian, in the experiment on PC-3 prostate, in the experiment with SNB-19 CNS and with UO-31 renal was > 100 µM throughout. The TGI with DU-145 prostate, with RXF 393 renal, in the experiment on NCI-H23 lung, in the experiment on NCI-H460 lung, in the experiment with ACHN renal and in the experiment on MDA-MB-435 was > 100 µM each time. Further, in the experiment with TK-10 renal, the TGI is > 100 µM.
As to `COC(=O)c1c(OC(C)=O)ccc2c1c1c(n2Cc2ccccc2)C(=O)c2ccccc2C1=O`, the TGI with NCI-H226 lung came out at 49.3 µM; with OVCAR-8 ovarian it was 89.1 µM; in the experiment on SK-OV-3 ovarian, 66.9 µM; in the experiment on SK-MEL-28 melanoma it was 41.2 µM; in the experiment with PC-3 prostate it was 59.8 µM; in the experiment with SNB-19 CNS, 97.1 µM. In addition, the TGI in the experiment with UO-31 renal was > 100 µM; in the experiment on DU-145 prostate it was 36.5 µM; in the experiment on RXF 393 renal, 37.8 µM; with NCI-H23 lung, 42.1 µM; with NCI-H460 lung, > 100 µM; with ACHN renal, > 100 µM. Further, the TGI with MDA-MB-435 amounted to 35.8 µM; in the experiment on TK-10 renal, 95.4 µM.
As to `CC(=O)Nc1ccccc1S(=O)(=O)c1c(-c2c(C)c(Cl)c(C)c(Cl)c2C)noc1C`, the TGI is 78.8 µM with NCI-H226 lung; > 100 µM in the experiment with OVCAR-8 ovarian; > 100 µM in the experiment with SK-OV-3 ovarian; > 100 µM in the experiment with SK-MEL-28 melanoma; > 100 µM with PC-3 prostate; 64.5 µM with SNB-19 CNS. Moreover, the TGI in the experiment on UO-31 renal, in the experiment with DU-145 prostate, in the experiment on RXF 393 renal, in the experiment with NCI-H23 lung, with NCI-H460 lung and in the experiment on ACHN renal was > 100 µM each time. The TGI in the experiment on MDA-MB-435 is > 100 µM; in the experiment with TK-10 renal it was 73.7 µM.
As for `N#CCCN(CCC#N)c1ccc(/C=C2\N=C(c3ccccc3)N(NC(=O)c3ccncc3)C2=O)cc1`, the TGI with NCI-H226 lung, in the experiment on LOX IMVI melanoma, with OVCAR-8 ovarian, in the experiment on SK-OV-3 ovarian, in the experiment with SK-MEL-28 melanoma and in the experiment on PC-3 prostate was > 100 µM each time. Also, the TGI in the experiment on SNB-19 CNS, in the experiment on UO-31 renal, with DU-145 prostate, with RXF 393 renal, in the experiment with NCI-H460 lung and with ACHN renal was > 100 µM throughout. In addition, the TGI in the experiment with MDA-MB-435 and with TK-10 renal was > 100 µM each time.
As to `O=C(O)C1CCCCN1CCc1c[nH]c2ccccc12` (stereo unspecified), the TGI in the experiment on NCI-H226 lung, in the experiment with LOX IMVI melanoma, with OVCAR-8 ovarian, in the experiment with SK-OV-3 ovarian, in the experiment on SK-MEL-28 melanoma and in the experiment with PC-3 prostate was > 100 µM in each case. In addition, the TGI with SNB-19 CNS, in the experiment with DU-145 prostate, with RXF 393 renal, in the experiment on NCI-H23 lung, with NCI-H460 lung and in the experiment on ACHN renal was > 100 µM throughout. The TGI in the experiment with MDA-MB-435 and with TK-10 renal was > 100 µM each time.
Regarding `CCOC(=O)CC(=O)Nc1c(C(=O)OCC)sc2nc(SC)nc(Nc3ccc(OC)c(OC)c3)c12`, the TGI in the experiment with NCI-H226 lung, in the experiment with LOX IMVI melanoma, in the experiment on OVCAR-8 ovarian, in the experiment with SK-MEL-28 melanoma, in the experiment on PC-3 prostate and in the experiment with UO-31 renal was > 100 µM in each case. The TGI was > 100 µM in the experiment on DU-145 prostate; 25.1 µM with RXF 393 renal; > 100 µM with NCI-H23 lung; > 100 µM in the experiment with ACHN renal; > 100 µM with MDA-MB-435; > 100 µM in the experiment on TK-10 renal.
In the case of `CC1C2CC(CC2=O)C1(C)C` (stereo unspecified), the TGI in the experiment on NCI-H226 lung, in the experiment on OVCAR-8 ovarian, with SK-OV-3 ovarian, in the experiment on SK-MEL-28 melanoma, in the experiment with PC-3 prostate and in the experiment on SNB-19 CNS was > 100 µM in each case. Moreover, the TGI in the experiment on UO-31 renal, in the experiment on DU-145 prostate, with RXF 393 renal, with NCI-H23 lung, with NCI-H460 lung and in the experiment on ACHN renal was > 100 µM each time. Moreover, the TGI in the experiment on MDA-MB-435 and with TK-10 renal was > 100 µM in each case.
Regarding `Cc1ccc(CCCC(=O)O)cc1C`, the TGI with NCI-H226 lung, with LOX IMVI melanoma, in the experiment on OVCAR-8 ovarian, with SK-MEL-28 melanoma, in the experiment on PC-3 prostate and in the experiment on SNB-19 CNS was > 100 µM each time. Further, the TGI in the experiment on UO-31 renal, in the experiment with DU-145 prostate, in the experiment with RXF 393 renal, with NCI-H23 lung, in the experiment on NCI-H460 lung and in the experiment on ACHN renal was > 100 µM throughout. Besides, the TGI in the experiment on MDA-MB-435 and in the experiment on TK-10 renal was > 100 µM in each case.
For `CC1(c2nc3ccccc3[nH]2)CCC(CO)C(C)(C)O1` (stereo unspecified), the TGI in the experiment with NCI-H226 lung, in the experiment on LOX IMVI melanoma, in the experiment on OVCAR-8 ovarian, in the experiment with SK-OV-3 ovarian, in the experiment with SK-MEL-28 melanoma and in the experiment on PC-3 prostate was > 100 µM each time. Also, the TGI in the experiment with SNB-19 CNS, in the experiment with UO-31 renal, in the experiment on DU-145 prostate, with RXF 393 renal, in the experiment with NCI-H23 lung and in the experiment with ACHN renal was > 100 µM throughout. Also, the TGI with MDA-MB-435 and with TK-10 renal was > 100 µM each time.
For the molecule `C/C(O)=C/c1nc2sc(C)c(C)c2c(=O)s1`, the TGI is > 100 µM with NCI-H226 lung; > 100 µM with LOX IMVI melanoma; > 100 µM in the experiment on OVCAR-8 ovarian; > 100 µM with SK-OV-3 ovarian; > 100 µM in the experiment on SK-MEL-28 melanoma; 69.5 µM in the experiment with PC-3 prostate. Further, the TGI in the experiment on SNB-19 CNS, in the experiment on UO-31 renal, with DU-145 prostate, in the experiment on RXF 393 renal, in the experiment on NCI-H23 lung and in the experiment on ACHN renal was > 100 µM throughout. Besides, the TGI with MDA-MB-435 and in the experiment on TK-10 renal was > 100 µM each time.
